Consider 36 molecules from patent US10544120B2, “Biaryl kinase inhibitors” (BRISTOL-MYERS SQUIBB COMPANY, priority 2015, dated 2020).

For this assay, the target named is GST-Xa-hAAK1 (Homo sapiens (Human), UniProt Q2M2I8). The assay is described as follows: AAK1 Kinase Assay. Type of assay: biochemical. Conditions: bacterially expressed GST-Xa-hAAK1 3.5 nM; ATP 22 μM; fluoresceinated peptide 1.5 μM; 3 hours at room temperature; Caliper LabChip 3000. How it is done: The assays were performed in U-bottom 384-well plates. […] The reactions were initiated by the combination of bacterially expressed, GST-Xa-hAAK1 with substrates and test compounds. The reactions were incubated at room temperature for 3 hours and terminated by adding 60 μl of 35 mM EDTA buffer to each sample. The reactions were analyzed on the Caliper LabChip 3000 (Caliper, Hopkinton, Mass.) by electrophoretic separation of the fluorescent substrate and phosphorylated product. […] Compounds were dissolved at 10 mM in dimethylsulfoxide (DMSO) and evaluated at eleven concentrations. IC50 values were derived by non-linear regression analysis.

Structures are written as SMILES.

GST-Xa-hAAK1, sequence (Q2M2I8 whole entry): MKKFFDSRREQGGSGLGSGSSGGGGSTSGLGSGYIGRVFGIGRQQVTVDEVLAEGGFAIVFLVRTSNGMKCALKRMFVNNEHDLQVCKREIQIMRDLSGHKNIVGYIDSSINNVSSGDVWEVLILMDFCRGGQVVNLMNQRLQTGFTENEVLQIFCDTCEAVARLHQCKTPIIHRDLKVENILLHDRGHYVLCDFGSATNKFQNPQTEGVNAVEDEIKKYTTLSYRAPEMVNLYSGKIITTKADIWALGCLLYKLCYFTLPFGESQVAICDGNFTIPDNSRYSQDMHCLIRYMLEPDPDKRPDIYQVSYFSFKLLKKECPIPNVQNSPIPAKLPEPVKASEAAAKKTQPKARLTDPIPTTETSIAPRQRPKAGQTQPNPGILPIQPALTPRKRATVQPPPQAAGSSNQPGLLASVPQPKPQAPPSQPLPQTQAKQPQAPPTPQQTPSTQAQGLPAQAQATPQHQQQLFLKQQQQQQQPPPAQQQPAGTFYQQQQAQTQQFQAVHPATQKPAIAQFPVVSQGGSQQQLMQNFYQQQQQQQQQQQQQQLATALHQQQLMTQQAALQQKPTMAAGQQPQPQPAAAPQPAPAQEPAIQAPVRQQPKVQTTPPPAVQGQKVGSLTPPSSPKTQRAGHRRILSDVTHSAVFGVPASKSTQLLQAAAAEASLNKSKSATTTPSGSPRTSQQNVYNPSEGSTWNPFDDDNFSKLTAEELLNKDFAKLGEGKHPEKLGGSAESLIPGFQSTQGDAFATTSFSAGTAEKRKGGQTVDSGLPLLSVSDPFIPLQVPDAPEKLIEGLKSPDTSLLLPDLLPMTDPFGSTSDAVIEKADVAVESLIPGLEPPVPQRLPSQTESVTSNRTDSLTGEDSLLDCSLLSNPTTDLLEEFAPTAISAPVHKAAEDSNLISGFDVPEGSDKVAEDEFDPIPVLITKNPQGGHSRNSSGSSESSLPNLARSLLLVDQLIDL

Regarding `CC(C)C[C@](C)(N)COc1ccc(-c2ccnc(C(F)F)n2)cc1C#N` [Example 315, (S)-2-((2-amino-2,4-dimethylpentyl)oxy)-5-(2-(difluoromethyl)pyrimidin-4-yl)benzonitrile], the IC50 stood at 1.5 nM.

Regarding `COc1nccc(-c2ccc(OC[C@@](C)(N)CC(C)C)c(C(F)(F)F)c2)n1` [Example 316, (S)-1-(4-(2-methoxypyrimidin-4-yl)-2-(trifluoromethyl)phenoxy)-2,4-dimethylpentan-2-amine], the IC50 stood at 8.2 nM.

`CC(C)C[C@](C)(N)COc1ccc(-c2ccnc(O)n2)cc1C(F)(F)F` [Example 317, (S)-4-(4-((2-amino-2,4-dimethylpentyl)oxy)-3 (trifluoromethyl)phenyl)pyrimidin-2-ol]: the IC50 is 103 nM.

Take `Cc1cc(-c2cc(C(F)F)c(OC[C@@](C)(N)CC(C)C)cn2)ncn1` [Example 318, (S)-1-((4-(difluoromethyl)-6-(6-methylpyrimidin-4-yl)pyridin-3-yl)oxy)-2,4-dimethylpentan-2-amine]: the IC50 is 9.7 nM.

Turning to `CC(C)C[C@](C)(N)COc1ccc(-c2ccnc(C(F)F)n2)nc1C(F)F` [Example 319, (S)-1-((2-(difluoromethyl)-6-(2-(difluoromethyl)pyrimidin-4-yl)pyridin-3-yl)oxy)-2,4-dimethylpentan-2-amine], the IC50 came out at 0.5 nM.

For the molecule `Cc1cc(-c2ccc(OC[C@@](C)(N)CC(C)C)c(CF)n2)ccn1` [Example 320, (S)-1-((6-(fluoromethyl)-2′-methyl-[2,4′-bipyridin]-5-yl)oxy)-2,4-dimethylpentan-2-amine], the concentration for half-maximal inhibition (IC50) came out at 21 nM.

Regarding `COC(=O)Nc1nccc(-c2ccc(OC[C@@](C)(N)CC(C)C)c(C(F)F)n2)n1` [Example 323, (S)-methyl (4-(5-((2-amino-2,4-dimethylpentyl)oxy)-6-(difluoromethyl)pyridin-2-yl)pyrimidin-2-yl)carbamate], the IC50 came to 0.8 nM.

As for `CC(C)C[C@](C)(N)COc1ccc(-c2ccnc(CF)c2)nc1CF` [Example 324, (S)-1-((2′,6-bis(fluoromethyl)-[2,4′-bipyridin]-5-yl)oxy)-2,4-dimethylpentan-2-amine], the IC50 was determined as 4.8 nM.

For the molecule `CC(C)C[C@](C)(N)COc1ccc(-c2ccnc(C(F)F)c2)nc1CF` [Example 325, (S)-1-((2′-(difluoromethyl)-6-(fluoromethyl)-[2,4′-bipyridin]-5-yl)oxy)-2,4-dimethylpentan-2-amine], the concentration for half-maximal inhibition (IC50) is 1.8 nM.

With `CC(C)CC1(COc2ccc(-c3ccnc(C(F)F)c3)nc2C(F)F)CCN1` (stereo not drawn) [Example 326, 2′,6-bis(difluoromethyl)-5-((2-isobutylazetidin-2-yl)methoxy)-2,4′-bipyridine], the IC50 came to 42 nM.

On to `Cc1cc2c(-c3ccc(OC[C@@](C)(N)CC(C)C)c(C(F)(F)F)c3)ccnc2[nH]1` [Example 327, (S)-2,4-dimethyl-1-(4-(2-methyl-1H-pyrrolo[2,3-b]pyridin-4-yl)-2-(trifluoromethyl)phenoxy)pentan-2-amine], for which the 50% inhibitory concentration (IC50) was found to be 0.8 nM.

In the case of `Cc1cc2c(-c3ccc(OC[C@@](C)(N)CC(C)C)c(C#N)c3)ccnc2[nH]1` [Example 328, (S)-2-((2-amino-2,4-dimethylpentyl)oxy)-5-(2-methyl-1H-pyrrolo[2,3-b]pyridin-4-yl)benzonitrile], the half-maximal inhibitory concentration (IC50) was 0.4 nM.

As for `Cc1nccc(-c2ccc(OC[C@@](C)(N)CC(C)C)c(C)c2)n1` [Example 329, (S)-2,4-dimethyl-1-(2-methyl-4-(2-methylpyrimidin-4-yl)phenoxy)pentan-2-amine], the IC50 was determined as 2.4 nM.

With `Cc1cc(-c2ccnc(C(F)(F)F)n2)ccc1OC[C@@](C)(N)CC(C)C` [Example 330, (S)-2,4-dimethyl-1-(2-methyl-4-(2-(trifluoromethyl)pyrimidin-4-yl)phenoxy)pentan-2-amine], the IC50 is 7.3 nM.

`CC(C)C[C@](C)(N)COc1ccc(-c2ccnc(C(F)(F)F)n2)cc1F` [Example 331, (S)-1-(2-fluoro-4-(2-(trifluoromethyl)pyrimidin-4-yl)phenoxy)-2,4-dimethylpentan-2-amine]: the half-inhibitory concentration (IC50) stood at 45 nM.

In the case of `CC(C)C[C@](C)(N)COc1ccc(-c2ccnc(C(C)C)n2)cc1F` [Example 337, (S)-1-(2-fluoro-4-(2-isopropylpyrimidin-4-yl)phenoxy)-2,4-dimethylpentan-2-amine], the IC50 was 886 nM.

In the case of `Cc1nc(-c2cc(N)ncn2)ccc1OC[C@@](C)(N)CC(C)C` [Example 343, (S)-6-(5-((2-amino-2,4-dimethylpentyl)oxy)-6-methylpyridin-2-yl)pyrimidin-4-amine], the IC50 is 19 nM.

`Cc1cc(-c2ccnc(F)c2)ncc1OC[C@@](C)(N)CC(C)C` [Example 344, (S)-1-((2′-fluoro-4-methyl-[2,4′-bipyridin]-5-yl)oxy)-2,4-dimethylpentan-2-amine]: the IC50 stood at 26 nM.

`Cc1nc(-c2ccnc(C(F)(F)F)c2)ccc1OC[C@@](C)(N)CC(C)C` [Example 348, (S)-2,4-dimethyl-1-((6-methyl-2′-(trifluoromethyl)-[2,4′-bipyridin]-5-yl)oxy)pentan-2-amine]: the half-maximal inhibitory concentration (IC50) worked out at 512 nM.

Take `Cc1cc(-c2ccnc(C(F)(F)F)c2)ncc1OC[C@@](C)(N)CC(C)C` [Example 349, (S)-2,4-dimethyl-1-((4-methyl-2′-(trifluoromethyl)-[2,4′-bipyridin]-5-yl)oxy)pentan-2-amine]: the half-maximal inhibitory concentration (IC50) stood at 70 nM.

For `Cc1cc(-c2ccc(OC[C@@](C)(N)CC(C)C)c(C(F)F)c2)ncn1` [Example 350, (S)-1-(2-(difluoromethyl)-4-(6-methylpyrimidin-4-yl)phenoxy)-2,4-dimethylpentan-2-amine], the concentration for half-maximal inhibition (IC50) was 39 nM.

In the case of `Cc1nccc(-c2ccc(OC[C@@](C)(N)CC(C)C)c(CF)c2)n1` [Example 352, (S)-1-(2-(fluoromethyl)-4-(2-methylpyrimidin-4-yl)phenoxy)-2,4-dimethylpentan-2-amine], the IC50 came out at 1.4 nM.

As for `Cc1nccc(-c2ccc(OC[C@](C)(N)CC(C)C)c(C)n2)n1` [Example 354, (R)-2,4-dimethyl-1-((2-methyl-6-(2-methylpyrimidin-4-yl)pyridin-3-yl)oxy)pentan-2-amine], the IC50 turned out to be 321 nM.

Take `CC(C)C[C@](C)(N)COc1ccc(-c2ccnc(CF)c2)nc1C(F)F` [Example 355, (S)-1-((6-(difluoromethyl)-2′-(fluoromethyl)-[2,4′-bipyridin]-5-yl)oxy)-2,4-dimethylpentan-2-amine]: the half-inhibitory concentration (IC50) is 1.1 nM.

On to `CC(C)C[C@](C)(N)COc1ccc(-c2ccnc(C(F)(F)F)c2)nc1C(F)F` [Example 356, (S)-1-((6-(difluoromethyl)-2′-(trifluoromethyl)-[2,4′-bipyridin]-5-yl)oxy)-2,4-dimethylpentan-2-amine], for which the concentration for half-maximal inhibition (IC50) was determined as 82 nM.

On to `Cc1cc(-c2ccnc(Cl)n2)ccc1OC[C@@](C)(N)CC(C)C` [Example 367, (S)-1-(4-(2-chloropyrimidin-4-yl)-2-methylphenoxy)-2,4-dimethylpentan-2-amine], for which the IC50 worked out at 4.5 nM.

Consider `CC(C)C[C@](C)(N)COc1ccc(-c2ccnc(Cl)n2)cc1C(F)(F)F` [Example 370, (S)-1-(4-(2-chloropyrimidin-4-yl)-2-(trifluoromethyl)phenoxy)-2,4-dimethylpentan-2-amine], for which the IC50 came out at 1.4 nM.

For the molecule `COC(=O)Nc1nccc(-c2cnc(OC[C@](C)(N)CC(C)C)c(C)c2)n1` [Example 372, (R)-methyl (4-(6-((2-amino-2,4-dimethylpentyl)oxy)-5-methylpyridin-3-yl)pyrimidin-2-yl)carbamate], the IC50 worked out at 236 nM.

Take `COC(=O)Nc1nccc(-c2cnc(OC[C@](C)(N)CC(C)C)c(F)c2)n1` [Example 373, (R)-methyl (4-(6-((2-amino-2,4-dimethylpentyl)oxy)-5-fluoropyridin-3-yl)pyrimidin-2-yl)carbamate]: the half-inhibitory concentration (IC50) was 684 nM.

In the case of `COC(=O)Nc1nccc(-c2cnc(OC[C@@](C)(N)CC(C)C)cc2C)n1` [Example 374, (S)-methyl (4-(6-((2-amino-2,4-dimethylpentyl)oxy)-4-methylpyridin-3-yl)pyrimidin-2-yl)carbamate], the concentration for half-maximal inhibition (IC50) was 339 nM.

Regarding `COC(=O)Nc1nccc(-c2cnc(OC[C@@](C)(N)CC(C)C)c(Cl)c2)n1` [Example 375, (S)-methyl (4-(6-((2-amino-2,4-dimethylpentyl)oxy)-5-chloropyridin-3-yl)pyrimidin-2-yl)carbamate], the half-maximal inhibitory concentration (IC50) was 2.6 nM.

Take `CC(C)C[C@](C)(N)COc1ccc(-c2ccnc(Cl)n2)cc1C#N` [Example 378, (S)-2-((2-amino-2,4-dimethylpentyl)oxy)-5-(2-chloropyrimidin-4-yl)benzonitrile]: the IC50 was 1.4 nM.

As for `COC(=O)Nc1nccc(-c2cnc(OC[C@@](C)(N)CC(C)C)c(C)c2)n1` [Example 379, (S)-methyl (4-(6-((2-amino-2,4-dimethylpentyl)oxy)-5-methylpyridin-3-yl)pyrimidin-2-yl)carbamate], the IC50 came to 35 nM.

As to `COc1cc(-c2ccc(OC[C@@](C)(N)CC(C)C)c(C(F)F)c2)ccn1` [Example 383, (S)-1-(2-(difluoromethyl)-4-(2-methoxypyridin-4-yl)phenoxy)-2,4-dimethylpentan-2-amine], the IC50 stood at 2 nM.

Regarding `Cc1cc(-c2ccc(OC[C@@](C)(N)CC(C)C)c(C)c2)ncn1` [Example 384, (S)-2,4-dimethyl-1-(2-methyl-4-(6-methylpyrimidin-4-yl)phenoxy)pentan-2-amine], the half-maximal inhibitory concentration (IC50) amounted to 46 nM.

`COc1cc(-c2cnc(OC[C@@](C)(N)CC(C)C)c(C#N)c2)ccn1` [Example 385, (S)-6-((2-amino-2,4-dimethylpentyl)oxy)-2′-methoxy-[3,4′-bipyridine]-5-carbonitrile]: the IC50 was determined as 50 nM.

By IC50 is commonly meant the midpoint of a concentration-inhibition curve.
